For assay [1], the target named is Carbonic anhydrase 2 (Homo sapiens) (UniProt P00918). To be noted: filed as activator.
Description: Binding affinity to human carbonic anhydrase 2 assessed as activation constant by phenol red dye based stopped-flow method
For assay [2], the system named is Mus musculus. The experiment in a line: Improvement of social recognition memory in juvenile familiar male C57Bl6 mouse assessed as reduction in exploration time by measuring discrimination index at 0.5 nmol/uL, ICV administered post acquisition phase and measured after 48 hrs at retention test phase. In kind it is functional, organism-based.
In assay [3] the target is Carbonic anhydrase 4 (Homo sapiens) (UniProt P22748). As to conditions: filed as activator.
Description: Binding affinity to human carbonic anhydrase 4 assessed as activation constant by phenol red dye based stopped-flow method
The target of assay [4] is Carbonic anhydrase 5B, mitochondrial (Homo sapiens) (UniProt Q9Y2D0). As to conditions: filed as activator.
Description: Binding affinity to human carbonic anhydrase 5B assessed as activation constant by phenol red dye based stopped-flow method
Assay [5] relates to Mus musculus. The assay can be described thus: Improvement of social recognition memory in juvenile unfamiliar male C57Bl6 mouse assessed as reduction in exploration time at 0.5 nmol/uL, ICV administered post acquisition phase and measured after 48 hrs at retention test phase. The class given is functional, organism-based.
Assay [6] concerns Mus musculus. The experiment in a line: Improvement of social recognition memory in juvenile familiar male C57Bl6 mouse assessed as reduction in exploration time at 0.5 nmol/uL, ICV administered post acquisition phase and measured after 48 hrs at retention test phase. In kind it is functional, organism-based.
In assay [7] the test system is Mus musculus. The assay can be described thus: Improvement of social recognition memory in juvenile unfamiliar male C57Bl6 mouse assessed as reduction in exploration time by measuring discrimination index at 0.5 nmol/uL, ICV administered post acquisition phase and measured after 48 hrs at retention test phase. In kind it is functional, organism-based.
In assay [8] the target is Carbonic anhydrase 7 (Homo sapiens) (UniProt P43166). To be noted: filed as activator.
Description: Binding affinity to human carbonic anhydrase 7 assessed as activation constant by phenol red dye based stopped-flow method
Assay [9] concerns the target Cholinesterase (Equus caballus, UniProt P81908).
Description: Inhibition of equine serum BuChE by microplate reader based analysis
For assay [10], the target named is Acetylcholinesterase (Electrophorus electricus, UniProt O42275).
Description: Inhibition of electric eel AChE by microplate reader based analysis
The target in assay [11] is Carbonic anhydrase 1 (Homo sapiens) (UniProt P00915). As to conditions: filed as activator.
Description: Binding affinity to human carbonic anhydrase 1 assessed as activation constant by phenol red dye based stopped-flow method
Assay [12] concerns Mus musculus. The experiment in a line: Improvement of social recognition memory in juvenile familiar male C57Bl6 mouse assessed as discrimination index at 50 nmol/uL, ICV administered post acquisition phase and measured after 48 hrs at retention test phase (reference value: -0.07+/-0.0124). In kind it is functional.
For assay [13], the system named is Mus musculus. The assay can be described thus: Improvement of social recognition memory in juvenile familiar male C57Bl6 mouse assessed as discrimination index at 25 nmol/uL, ICV administered post acquisition phase and measured after 48 hrs at retention test phase in presence of tacrine (reference value: -0.07+/-0.0124). In kind it is functional.
In assay [14] the test system is Mus musculus. The assay can be described thus: Improvement of social recognition memory in juvenile familiar male C57Bl6 mouse assessed as reduction in exploration time at 25 nmol/uL, ICV administered post acquisition phase and measured after 48 hrs at retention test phase in presence of tacrine. In kind it is functional, organism-based.
In assay [15] the test system is Mus musculus. The assay can be described thus: Improvement of social recognition memory in juvenile familiar male C57Bl6 mouse assessed as reduction in exploration time at 5 nmol/uL, ICV administered post acquisition phase and measured after 48 hrs at retention test phase in presence of tacrine. In kind it is functional, organism-based.
For assay [16], the system named is Mus musculus. The experiment in a line: Improvement of social recognition memory in juvenile unfamiliar male C57Bl6 mouse assessed as reduction in exploration time at 5 nmol/uL, ICV administered post acquisition phase and measured after 48 hrs at retention test phase in presence of tacrine. In kind it is functional, organism-based.
In assay [17] the test system is Mus musculus. The assay can be described thus: Improvement of social recognition memory in juvenile unfamiliar male C57Bl6 mouse assessed as reduction in exploration time at 25 nmol/uL, ICV administered post acquisition phase and measured after 48 hrs at retention test phase in presence of tacrine. In kind it is functional, organism-based.

Active and inactive are the calls of the source. No cut-off for these calls is given here.

Chain of Carbonic anhydrase 7 (Homo sapiens) (P43166 whole entry): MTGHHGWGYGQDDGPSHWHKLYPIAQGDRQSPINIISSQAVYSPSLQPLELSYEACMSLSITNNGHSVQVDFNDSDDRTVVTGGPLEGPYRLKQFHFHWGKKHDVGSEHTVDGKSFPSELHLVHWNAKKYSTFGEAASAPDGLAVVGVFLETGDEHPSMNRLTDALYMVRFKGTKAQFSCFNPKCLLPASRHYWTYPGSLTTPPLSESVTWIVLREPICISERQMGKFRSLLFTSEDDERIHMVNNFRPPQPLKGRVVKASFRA
Chain of Carbonic anhydrase 4 (Homo sapiens) (P22748 whole entry): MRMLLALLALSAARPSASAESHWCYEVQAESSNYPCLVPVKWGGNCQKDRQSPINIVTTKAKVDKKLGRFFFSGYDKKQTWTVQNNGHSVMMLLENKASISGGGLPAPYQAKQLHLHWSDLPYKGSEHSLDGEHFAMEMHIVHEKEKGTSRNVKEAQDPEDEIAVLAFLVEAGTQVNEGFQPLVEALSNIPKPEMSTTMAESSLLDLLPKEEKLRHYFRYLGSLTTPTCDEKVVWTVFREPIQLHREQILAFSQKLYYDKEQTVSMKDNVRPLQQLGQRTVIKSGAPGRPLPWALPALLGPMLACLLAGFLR
Chain of Acetylcholinesterase (O42275 whole entry): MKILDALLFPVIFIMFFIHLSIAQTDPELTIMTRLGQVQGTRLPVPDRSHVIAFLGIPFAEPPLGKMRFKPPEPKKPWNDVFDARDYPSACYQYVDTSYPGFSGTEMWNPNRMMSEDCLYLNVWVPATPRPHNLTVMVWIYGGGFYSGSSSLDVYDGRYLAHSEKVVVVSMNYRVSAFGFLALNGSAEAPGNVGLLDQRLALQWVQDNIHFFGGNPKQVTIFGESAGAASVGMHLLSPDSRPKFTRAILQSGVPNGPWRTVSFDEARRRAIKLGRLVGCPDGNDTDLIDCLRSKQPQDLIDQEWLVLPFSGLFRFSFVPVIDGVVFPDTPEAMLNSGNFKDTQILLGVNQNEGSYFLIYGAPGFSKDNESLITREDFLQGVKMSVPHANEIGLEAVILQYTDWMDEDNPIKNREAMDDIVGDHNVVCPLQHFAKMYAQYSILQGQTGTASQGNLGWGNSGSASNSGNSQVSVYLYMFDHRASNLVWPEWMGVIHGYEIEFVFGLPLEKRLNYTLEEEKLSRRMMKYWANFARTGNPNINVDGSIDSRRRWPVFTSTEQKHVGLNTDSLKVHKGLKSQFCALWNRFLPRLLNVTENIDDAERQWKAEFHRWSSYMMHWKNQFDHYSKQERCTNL
Chain of Carbonic anhydrase 5B, mitochondrial (Homo sapiens) (Q9Y2D0 whole entry): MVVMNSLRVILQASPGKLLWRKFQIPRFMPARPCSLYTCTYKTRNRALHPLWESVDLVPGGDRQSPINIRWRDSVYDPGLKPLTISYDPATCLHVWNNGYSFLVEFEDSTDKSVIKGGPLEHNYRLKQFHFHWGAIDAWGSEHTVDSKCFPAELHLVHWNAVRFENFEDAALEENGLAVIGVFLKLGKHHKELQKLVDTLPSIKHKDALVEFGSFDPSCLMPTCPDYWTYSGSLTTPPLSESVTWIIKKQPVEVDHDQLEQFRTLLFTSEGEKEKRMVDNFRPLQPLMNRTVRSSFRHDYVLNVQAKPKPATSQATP
Chain of Carbonic anhydrase 1 (Homo sapiens) (P00915 2-261 limits assumed): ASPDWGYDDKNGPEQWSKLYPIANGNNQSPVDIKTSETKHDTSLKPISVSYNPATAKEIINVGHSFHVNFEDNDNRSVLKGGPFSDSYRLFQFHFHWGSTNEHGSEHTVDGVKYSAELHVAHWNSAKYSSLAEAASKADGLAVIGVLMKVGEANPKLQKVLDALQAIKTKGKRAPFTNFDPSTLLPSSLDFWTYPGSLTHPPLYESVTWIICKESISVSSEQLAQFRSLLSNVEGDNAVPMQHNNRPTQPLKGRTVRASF
Chain of Cholinesterase (P81908 whole entry): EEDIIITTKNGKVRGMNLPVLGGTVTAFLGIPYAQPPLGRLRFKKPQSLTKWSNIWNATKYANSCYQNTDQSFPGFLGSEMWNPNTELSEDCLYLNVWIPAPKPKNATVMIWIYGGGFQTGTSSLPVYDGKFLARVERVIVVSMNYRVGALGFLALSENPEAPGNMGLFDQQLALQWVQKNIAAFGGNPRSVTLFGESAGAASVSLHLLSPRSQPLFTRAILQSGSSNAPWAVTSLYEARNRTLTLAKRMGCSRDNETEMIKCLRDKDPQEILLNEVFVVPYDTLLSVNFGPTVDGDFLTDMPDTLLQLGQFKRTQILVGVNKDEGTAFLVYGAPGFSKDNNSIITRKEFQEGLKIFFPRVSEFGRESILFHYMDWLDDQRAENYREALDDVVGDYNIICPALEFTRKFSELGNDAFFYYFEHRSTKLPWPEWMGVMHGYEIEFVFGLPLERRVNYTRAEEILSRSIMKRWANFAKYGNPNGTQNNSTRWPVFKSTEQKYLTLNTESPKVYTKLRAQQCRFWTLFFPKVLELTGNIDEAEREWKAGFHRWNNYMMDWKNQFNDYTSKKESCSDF

For `N[C@@H](CCCCNC(=O)OCc1ccccc1)C(=O)NCCCNc1c2c(nc3ccccc13)CCCC2`, the KA in assay [1] is 1200 nM; in assay [3] it was 8.52 µM; in assay [4] it was 4.95 µM; in assay [8], 3.08 µM; in [11], 2080 nM. Moreover, the outcome in assay [2], in assay [5], in [6] and in assay [7] was inactive. The IC50 (as a rule, the midpoint of a concentration-inhibition curve) in assay [9] was 0.3 nM; in assay [10], 110 nM.
Consider `N[C@H](Cc1ccccc1)C(=O)O` [D-PHENYLALANINE], for which the Activity_index amounted to 0.373 in assay [12] and 0.205 in assay [13]. Further, the outcome in assay [14] and in [17] was Active. Besides, the outcome in [15] and in assay [16] was inactive.

Source of the values: ChEMBL document CHEMBL5579900, “Enhanced Recognition Memory through Dual Modulation of Brain Carbonic Anhydrases and Cholinesterases” (J Med Chem, 2024).
